We go through 13 molecules from patent US6790644B2, “1,3-dicarbonyl-dioxygenase—a new c-c-bond cleaving enzyme” (Biocatalytics, Inc., priority 2001, dated 2004).

One data set relates to tRNA. Conditions: cited from earlier work.
For another data set, the system named is Salmonella typhimurium. Conditions: cited from earlier work.
Data set [1] addresses T1, 1,3-dicarbonyl-dioxygenase (Acinetobacter johnsonii, UniProt Q8GNT2). Put plainly: Determination of enzyme-activity and stability versus pH and additives. The format is physicochemical. The method, then: Activity measurements were performed with the oxygen-electrode, with KH2PO4-buffers adjusted to various pH-values [5.0-9.0]. For stability measurements, the enzyme was diluted ten-fold and incubated at various pH-values [5.0-9.0]. The activity was measured periodically with the UV-activity-assay.

For a further data set, the system named is CCCCC(=O)CC(C)=O. The experiment in a line: purified protein, by the assay type. Conditions: other: apparent; photometric, oxygen-saturated buffer, substrate 10-200 μM; pH 7.5; 25.0 °C.
The next data set deals with CC(=O)C(C)C(C)=O. Put plainly: purified protein, by the assay type. The note with it: other: apparent; photometric, oxygen-saturated buffer, substrate 10-200 μM; pH 7.5; 25.0 °C.
Another data set has as its system CC(=O)CC(=O)C(C)(C)C. The experiment in a line: purified protein, by the assay type. The note with it: other: apparent; photometric, oxygen-saturated buffer, substrate 10-200 μM; pH 7.5; 25.0 °C.
The next data set relates to CC(=O)C1CCCCC1=O. Put plainly: purified protein, by the assay type. Conditions: other: apparent; photometric, oxygen-saturated buffer, substrate 10-200 μM; pH 7.5; 25.0 °C.
Another data set concerns CC(=O)C1CCCC1=O. The experiment in a line: purified protein, by the assay type. The note with it: other: apparent; photometric, oxygen-saturated buffer, substrate 10-200 μM; pH 7.5; 25.0 °C.
Another data set concerns CCCCCC(=O)CC(C)=O. Put plainly: purified protein, by the assay type. The note with it: other: apparent; photometric, oxygen-saturated buffer, substrate 10-200 μM; pH 7.5; 25.0 °C.
The conditions of data set [2]: cited from earlier work.
Data set [3] addresses T1, 1,3-dicarbonyl-dioxygenase. The experiment in a line: Reaction analysis with purified enzyme by in situ 1H-NMR / HPLC. It is filed as biochemical. The note with it: no cofactor added.
Data set [4] concerns the target T1, 1,3-dicarbonyl-dioxygenase. Put plainly: Products of various substrates determined by HPLC (cleavage stoichiometry, partially purified enzyme). Conditions: substrate 4 mM, 25° C., one hour; for Substrate % (remaining): remaining substrate calculated; for Acetate % / Methylglyoxal %: oxygen saturated buffer. The format is biochemical. From the text: The products of the enzyme reaction were identified directly from the reaction mixture by in situ ^1H-NMR-spectroscopy (Pokorny, D., L. Brecker, M. Pogorevc, H. Griengl, W. Steiner, T. Kappe, and D. W. Ribbons. 1999. Proton-Nuclear Magnetic Resonance Analyses of the Substrate Specificity of a β-Ketolase from Pseudomonas putida, Acetopyruvate Hydrolase. J. Bacteriol. 181: 5051-5059.). Therefore a 200 MHz narrow bore magnet (Varian Gemini™ 2000, Varian, Inc., Palo Alto, Calif.) and a 5 mm broadband probe head were used. The NMR tube was rotated at 20 rps. For a lock a D2O vortex capillary was added to avoid ^1H/D exchange reactions. The overwhelming water-signal was suppressed with a presaturation method (Guéron, M., P. Plateau and M. Decorps. 1991. Solvent signal suppression in NMR. Prog. NMR Spectrosc. 23: 135-209. Hore, J. P. 1989. Solvent suppression. p. 64. In N. J. Oppenheimer and J. T. James (eds.), Methods Enzymol. 176. Academic Press, Inc., San Diego.). The following parameters were adjusted for a ^1H-frequency of 200 MHz: presaturation-duration of 1.0 s, ^1H-pulse-angle of 90, an acquisition-time of 2.0 s and a relaxation delay of 1.5 s. 64 Scans were accumulated and after a zero filling to 32 k datapoints the free induction decay was Fourier transformed. The water signal (4.70 ppm) was used as a reference. For standard reaction analytics HPLC-measurements were performed (Hewlett-Packard, column: Aminex-HPX-87H, UV- and RI-detector, eluent Sulfuric acid 0.005 M).
The cleavage-stoichiometry of several non-symmetrical substrates was also investigated, in order to be able to determine the regiospecificity of the enzyme. This was done by conversion of the respective substrate with partially purified enzyme. Methylglyoxal and acetate formed were measured by HPLC. Remaining substrate was calculated.

The target of data set [5] is T2, recombinant 1,3-dicarbonyl-dioxygenase (expressed in E.coli) (Acinetobacter johnsonii, UniProt Q8GNT2).
T2 construct: made in house; host or cells: E. coli XL1 Blue, plasmid pMS470 (tac promoter, NdeI/HindIII)
Put plainly: Relative activity of recombinant protein at non-limiting substrate concentrations. The format is biochemical. As to the method:
Expression constructs were expressed in E.coli XL1 Blue (Stratagene, La Jolla, Calif.), which was grown to an OD of 1 at 30° C. on rotatory shakers in erlenmeyer flasks, then induced with IPTG (0.3 mM) and incubated for another 5 hours.
(§1) The reaction rates were determined by using the microcomputer regression program provided with the spectrophotometer (Winspec) based on the first ten absorbance measurements made at 5-s intervals.
(§2) Oxygen consumption during the enzyme reaction was measured with an oxygen-electrode-cell (Digital Oxygen System Model 10, Rank Brothers Ltd., Cambridge, England) as described previously (Beechey, R. B. and Ribbons, D. W. (1971). ‘Methods in Microbiology’.V. 6B. Edited by J. R. Norris and D. W. Ribbons. Academic press, London. ‘Oxygen electrode measurements’ (Chapter II) pp. 29-52.). The reaction mixture contained air-saturated KH2PO4-buffer, 50 mM, pH 7.5 at 25° C. (thermostat). The oxygen-electrode was calibrated by the sodium-sulfite-method. Varying concentrations of substrate (0.01-0.3 mM) were added and the resulting decrease of oxygen was determined.

Data set [6] has as its target wild-type 1,3-dicarbonyl-dioxygenase (Acinetobacter johnsonii, UniProt Q8GNT2). The experiment in a line: Relative activity of wild-type enzyme at non-limiting substrate concentrations. It is filed as biochemical. The method, then:
as §1, §2

In data set [7] the target is T1, 1,3-dicarbonyl-dioxygenase. Put plainly: Substrate spectrum / apparent kinetic constants of purified 1,3-dicarbonyl-dioxygenase (UV assay and oxygen electrode). The note with it: for Vmaxrel. / KO2: apparent; for Vmaxrel.: relative to acetylacetone = 1.00, purified wild-type enzyme; for KO2: polarographic, estimated from rate of oxygen depletion, substrate 0.5-1 mM; for O2/Substrate: oxygen consumed per substrate, oxygen electrode. The method, then: as §1
Substrates were dissolved at a concentration of 0.001-1 mM in KH2PO4-buffer, 50 mM, pH 7.5 using a 10 mM stock solution. Duplicate absorption-measurements of 20 different dilutions were performed at 25° C. The molar absorption coefficients were calculated by linear regression.
as §2
Assuming the Michaelis-Menten-equation, Vmax and Ks values were calculated by non-linear curve-fit by the program microcal-origin. KO2 was estimated by polarographic methods, adding non limiting amounts of substrate (0.5-1 mM) and graphically determining the oxygen concentration at the point of half of the maximum activity. Ks-values were similarly confirmed by polarographic methods, by stepwise addition of substrate to a final concentration of 20-150 μM.

Where [8] appears, read: repeated exposure, peroral and inhalation routes.
Setting [9] is: relative activity, acetylacetone = 1.00, non-limiting substrate concentrations.
Where [10] appears, read: glycerol 10%, glucose 12.5%, ascorbate 1 mM, bovine serum albumin 1-20 mg/mL, dithiothreitol 1 mM, mercaptoethanol 1 mM.

Like-named read-outs stand apart in the source and are kept apart here. Some results are limits rather than exact numbers.

As for `CC(=O)CC(=O)c1ccccc1` [benzoylacetone], in the data set with tRNA, the “inhibition of binding to tRNA of benzo[a]pyrene” value was “inhibited”. In addition, the “inhibition of mutagenicity of 2-naphthohydroxamic acid” value in the data set with Salmonella typhimurium is reported as “inhibit”.
`O=C(CC(=O)c1ccccc1)c1ccccc1` [dibenzoylmethane]: in the data set with tRNA, the “inhibition of binding to tRNA of aflatoxin B1” value was “inhibited” and the “inhibition of binding to tRNA of benzo[a]pyrene” value is on record as “inhibited”. In the data set on Salmonella typhimurium, the “inhibition of mutagenicity of 2-naphthohydroxamic acid” value was “inhibit”, the “inhibition of mutagenicity of aflatoxin B1” value was “inhibit”, the “inhibition of mutagenicity of benzo[a]pyrene” value is “inhibit” and the “inhibition of mutagenicity of methylnitrosourea” value is on record as “inhibit”.
In the case of `O[C@H](CS)[C@H](O)CS` (racemic) [dithiothreitol], the “effect of potential stabilizing agent on enzyme stability” value (“effect of potential stabilizing agent” for short) in data set [1] is “did not enhance stability”.
“1,3-dicarbonyl-dioxygenase (Acinetobacter johnsonii)”: the Km with CCCCC(=O)CC(C)=O was found to be 5.9 ± 1.5 µM; in the data set with CC(=O)C(C)C(C)=O, 23.1 ± 6.8 µM; in the data set with CC(=O)CC(=O)C(C)(C)C, 14.2 ± 3.7 µM; in the data set with CC(=O)C1CCCCC1=O, 18.1 ± 4.2 µM; with CC(=O)C1CCCC1=O, 21.0 ± 6.1 µM; in the data set on CCCCCC(=O)CC(C)=O it was 7.5 ± 2.1 µM.
In the case of `CC(=O)CC(C)=O` [Acetylacetone, pentane-2,4-dione], in [2] (in vivo), the fetotoxicity result is listed as “fetotoxicity was observed”. Further, in data set [2] (setting [8]), the immune system toxicity result is given as “possible immune system toxicity” and the neurotoxicity result is listed as “central neurotoxicity”. Also, in data set [3], the “acetate found per mmol of acetyl-acetone cleaved” value is recorded as “one”. In addition, in [4], the “Substrate % (remaining)” value is on record as 0%, the Acetate % is 50% and the Methylglyoxal % is recorded as 50%. In addition, the Vmax clone in data set [5] (setting [9]) amounted to 1.00. The Vmax wild-type in [6] (setting [9]) was found to be 1.00. For the same molecule, the “pH up to which the substrate is accepted by the enzyme” value in data set [7] (activity-pH-relationship studies) is recorded as at most 9. In data set [7], the Vmaxrel. came out at 1.00 and the KO2 is 38 ± 6 µM.
As for `OCC(O)CO` [glycerol], the “effect of potential stabilizing agent” value in [1] (setting [10]) is reported as “did not enhance stability”.
As for `O=C1CC(=O)c2ccccc21` [1,3-indandione], the “inhibition of binding to tRNA of aflatoxin B1” value in the data set on tRNA is reported as “inhibited”. In addition, in the data set on Salmonella typhimurium, the “inhibition of mutagenicity of aflatoxin B1” value is on record as “inhibit” and the “inhibition of mutagenicity of benzo[a]pyrene” value is listed as “inhibit”. In addition, in the data set with Salmonella typhimurium (concomitant exposure to inhibitor and mutagen necessary), the “inhibition of mutagenicity of methylnitrosourea” value is recorded as “inhibit”.
In the case of `CC(=O)CC(=O)C(F)(F)F` [1,1,1-trifluoroacetylacetone], in the data set with tRNA, the “inhibition of binding to tRNA of aflatoxin B1” value is recorded as “inhibited”.
Take `CC(=O)C(C)C(C)=O` [3-Methylpentandion, 3-Methylpentanedione]: in data set [4], the “Substrate % (remaining)” value is reported as 18% and the Acetate % is recorded as 82%. Also, the Vmax clone in data set [5] was determined as 0.85. Also, in data set [6], the Vmax wild-type is 0.83. In addition, in data set [7], the “acceptance as substrate (in words)” value was “quite good reaction rated”, the Vmaxrel. was determined as 0.25, the KO2 is 40 ± 8 µM and the O2/Substrate turned out to be 1.0.
Turning to `CCCCC(=O)CC(C)=O` [2,4-Octandion, 2,4-Octanedione], in data set [4], the Methylglyoxal/Acetate came out at 0.5, the “Substrate % (remaining)” value was 18%, the Acetate % turned out to be 55% and the Methylglyoxal % is on record as 27%. For the same molecule, the Vmax clone in data set [5] amounted to 0.60. The Vmax wild-type in data set [6] worked out at 0.50. In addition, in data set [7], the Vmaxrel. is reported as 0.58, the KO2 is 85 ± 15 µM and the O2/Substrate is 1.0.
With “bovine serum albumin: potential stabilizing agent added to the enzyme”, the “effect of potential stabilizing agent” value in [1] (setting [10]) is recorded as “did not enhance stability”.
Consider `OCCS` [mercaptoethanol], for which the “effect of potential stabilizing agent” value in [1] is reported as “did not enhance stability”.

B1: 1,3-dicarbonyl-dioxygenase: Purified A. johnsonii enzyme, about 67 kDa, subunits of about 16.6 kDa (SEQ ID NO: 2), cleaves 1,3-dicarbonyl compounds with molecular oxygen (protein)
chain: MDYCNKKHTAEEYVKISDNNYVPFPEAFSDGGITWQLLHSSPETSSWTAIFNCPAGSSFASHIHAGPGEYFLTKGKMEVRGGEQEGGSTAYAPSYGFESSGALHGKTFFPVESQFYMTFLGPLNFIDDNGKVIASIGWAEAQGAWLATKNEAA
As to B1, the halftime-stability in data set [1] (0.05 mg/mL protein concentration, 4° C.) came to 3550 min. Further, the “pH of maximum stability” value in data set [1] (enzyme incubated at pH 5.0-9.0) is recorded as 7.5-8.0. Moreover, in data set [1] (oxygen electrode, KH2PO4-buffers pH 5.0-9.0), the “pH of maximum activity” value is 6.0-7.5. Moreover, in data set [7] (acetylacetone as substrate), the “apparent Vmax of the purified enzyme” value is on record as 10.5 U/mgEnzyme.
